Laboratory results as given in patent US11180481B2, “Oxopiperazine helix mimetics as inhibitors of the p53-MDM2 interaction” (NEW YORK UNIVERSITY, priority 2014, dated 2021).
Like-named read-outs stand apart in the source and are kept apart here.

Molecular target: T1, N-terminal His6-tagged Mdm225-117 (Homo sapiens, UniProt Q00987)
T1 construct: 25-117 fusion protein; made in house; host or cells: E. coli BL21 DE3 pLySS, pET-14B vector
Test: Fluorescence polarization competitive binding assay with fluorescein labeled p53 peptide (Flu-p53)
Details: for fold decrease in binding affinity: relative to 18 (3-chloro-phenylalanine at R1)
Procedure: The relative affinities of peptides for N-terminal His6-tagged Mdm225-117 were determined using fluorescence polarization based competitive binding assay with fluorescein labeled p53 peptide, Flu-p53. The polarization experiments were performed with a DTX 880 Multimode Detector (Beckman) at 25° C., with excitation and emission wavelengths at 485 nm and 535 nm, respectively. All samples were prepared in 96 well plates in 0.1% pluronic F-68 (Sigma).
For competition binding experiments, a solution of 250 nM Mdm2 and 15 nM Flu-p53 in buffer (10 mM PBS pH 7.4, 5 mM EDTA, 0.5 mM DTT, 0.1% pluronic F-68) was incubated at 25° C. in a 96 well plate. After 30 minutes, appropriate concentrations of the oxopiperazine (1 nM-100 μM) were added to the Mdm2-Flu-p53 mixture and the resulting mixtures were incubated at 25° C. for 1 hour before measuring the degree of dissociation of Flu-p53 by polarization. The EC50 was fit into equation (2) to calculate the Ki value of the oxopiperazine. Ki=KD1*FSB*((LT/(LST*FSB2−(KD1+LST+RT)*FSB+RT))−1(1−FSB)) (2)
where: • KD=KD of fluorescent probe Flu-p53 • RT=Total concentration of Mdm2 protein • LST=total concentration of p53 fluorescent peptide • FSB=Fraction of bound […] (at EC50) • LT=total concentration of oxopiperazine (EC50)
The binding affinity (KD) values reported for each peptide are the averages of 3-5 individual experiments, and were determined by fitting the experimental data to a sigmoidal dose-response nonlinear regression model on GraphPad Prism 5.0 (Roehrl et al., Biochemistry 43:16056 (2004), which is hereby incorporated by reference in its entirety).
A previously-described fluorescence polarization competition assay with a fluorescein-labeled p53 peptide was utilized to probe the binding affinity of the mimetics (Henchey et al., ChemBiochem 11:2104 (2010); Knight et al., Anal. Biochem. 300:230 (2002), each of which is hereby incorporated by reference in its entirety). […] To examine the effect of the R3 position on the binding properties, a series of compounds was designed in which this position was changed to hydrophobic, anionic, or cationic residues. These studies were performed in the context of the dimers (1-4) as well as oxopiperazine monomers linked to uncyclized dipeptides (see Table 4, supra). […] Importantly, comparisons of dimers 3 (FWLL) and 4 (FWFL) with the monomer-dipeptide sequences 11 and 12 support the hypothesis that cyclization of dipeptides in oxopiperazine rings provides a significant boost to the ability of these helix mimetics to target protein pockets Ramachandran Plots (Ramachandran & Sasisekharan, Adv. Protein Chem. 23:283 (1968), which is hereby incorporated by reference in its entirety) obtained from quantum mechanical calculations further illustrate the flexibility of the uncyclized derivative (FIGS. 9C-D) as compared to the cyclic dimer (FIGS. 9A-B).

[1] = Table 3, oxopiperazine dimers, competitive fluorescence polarization assay, read-out: Kd (μM), binding affinity for Mdm2
[2] = Table 5, restated by sequence, read-out: Experimental Kd
[3] = Table 6, computationally predicted dimers, competitive fluorescence polarization assay, read-out: Kd (μM), binding affinity for Mdm2

Structure (SMILES): CC(C)C[C@@H](C(=O)O)N1CCN(C(=O)[C@H](Cc2c[nH]c3ccccc23)N2CCN[C@@H](Cc3ccccc3)C2=O)[C@@H](C)C1=O [Mimetic 1, FWAL-OH]
- Kd [1]: 65.4 ± 0.28 µM
- Kd (oxopiperazine trimers, method not stated, read-out: Kd2): 3.1 ± 2.4 µM
- Kd (read-out: dissociation constant, Kd): 65 µM

Structure (SMILES): CC(C)C[C@@H](C(=O)O)N1CCN(C(=O)[C@H](Cc2c[nH]c3ccccc23)N2CCN[C@@H](Cc3ccccc3)C2=O)[C@@H](CCCCN)C1=O [Mimetic 2, FWKL-OH]
- binding to Mdm2, in words: appreciably lower affinity

Structure (SMILES): CC(C)C[C@@H](C(N)=O)N1CCN(C(=O)[C@H](Cc2c[nH]c3ccccc23)N2CCN[C@@H](Cc3ccccc3)C2=O)[C@@H](Cc2ccccc2)C1=O [Mimetic 5, FWFL-NH2]
- Kd [1]: 2.88 ± 0.12 µM

Structure (SMILES): NCCCC[C@@H](C(N)=O)N1CCN(C(=O)[C@H](Cc2c[nH]c3ccccc23)N2CCN[C@@H](Cc3ccccc3)C2=O)[C@@H](Cc2ccccc2)C1=O [Mimetic 6, FWFK-NH2]
- binding to Mdm2, in words: rather poor binder

Structure (SMILES): CC(C)C[C@@H](C(N)=O)N1CCN(C(=O)[C@H](Cc2c[nH]c3ccccc23)N2CCN[C@@H](CCCCN)C2=O)[C@@H](Cc2ccccc2)C1=O [Mimetic 7, KWFL-NH2]
- binding to Mdm2, in words: poor binder

Structure (SMILES): CC(C)C[C@@H](C(N)=O)N1CCN(C(=O)[C@H](C)N2CCN[C@@H](Cc3ccccc3)C2=O)[C@@H](Cc2ccccc2)C1=O [Mimetic 8, FAFL-NH2]
- Kd [1]: 63.9 ± 6.8 µM

Structure (SMILES): CCCC[C@@H](C(N)=O)N1CCN(C(=O)[C@H](Cc2c[nH]c3ccccc23)N2CCN[C@@H](Cc3ccccc3)C2=O)[C@@H](Cc2ccccc2)C1=O [Mimetic 13, FWF(Nle)-NH2]
- Kd [2]: 2.46 µM

Structure (SMILES): CC(C)C[C@@H](C(N)=O)N1CCN(C(=O)[C@H](Cc2c[nH]c3ccccc23)N2CCN[C@@H](Cc3cccc4ccccc34)C2=O)[C@@H](Cc2ccccc2)C1=O [Mimetic 15, (Nap)WFL-NH2]
- Kd [2]: 0.85 µM
- fold higher affinity than 5 (relative to mimetic 5): three-fold higher affinity

Structure (SMILES): CC(C)C[C@@H](C(N)=O)N1CCN(C(=O)[C@H](Cc2c[nH]c3ccccc23)N2CCN[C@@H](Cc3ccc(O)cc3)C2=O)[C@@H](Cc2ccccc2)C1=O [Mimetic 16, YWFL-NH2]
- Kd [2]: 0.4 µM
- Kd (read-out: ligand for Mdm2 (affinity)): 0.4 µM

Structure (SMILES): COc1ccc(C[C@@H]2NCCN([C@@H](Cc3c[nH]c4ccccc34)C(=O)N3CCN([C@@H](CC(C)C)C(N)=O)C(=O)[C@@H]3Cc3ccccc3)C2=O)cc1 [Mimetic 17, Y(O—Me)WFL-NH2]
- binding to Mdm2, in words: slightly better than 16
- Kd [3]: 0.32 ± 0.01 µM

Structure (SMILES): CC(C)C[C@@H](C(N)=O)N1CCN(C(=O)[C@H](Cc2c[nH]c3ccccc23)N2CCN[C@@H](Cc3cccc(Cl)c3)C2=O)[C@@H](Cc2ccccc2)C1=O [Mimetic 18, F(3-Cl)WFL-NH2]
- binding to Mdm2, in words: slightly better than 16
- Kd [2]: 0.33 µM

Structure (SMILES): Cc1cccc(C[C@@H]2NCCN([C@@H](Cc3c[nH]c4ccccc34)C(=O)N3CCN([C@@H](CC(C)C)C(N)=O)C(=O)[C@@H]3Cc3ccccc3)C2=O)c1 [Mimetic 19, F(3-Me)WFL-NH2]
- Kd [2]: 2.6 µM
- fold decrease in binding affinity: 8 fold

Structure (SMILES): CC(C)C[C@@H](C(N)=O)N1CCN(C(=O)[C@H](Cc2c[nH]c3ccccc23)N2CCN[C@@H](Cc3ccc(Cl)cc3)C2=O)[C@@H](Cc2ccccc2)C1=O [Mimetic 20, F(4-Cl)WFL-NH2]
- Kd [3]: 1.29 ± 0.06 µM
- fold decrease in binding affinity: 4 fold
